Assay results from publication PMC6186498 (Toxicology, 2018).
Where two headings read alike, the source gives them in different places. Marks after values point to notes of the source that are not given here.

Key:
[1] = for flux through oxidation metabolism pathway over that through conjugation: across all mouse strains examined; for overall flux of glutathione conjugation expressed as dose: after equimolar treatment of TCE or PCE; for yield through glutathione conjugation pathway as % of that through oxidative pathway: range given for TCE and PCE together, approximately; for fraction of the total administered dose remaining unmetabolized until excretion: model estimate at steady state; for TCA(%), percentage of administered TCE excreted in urine / TCOH (%): This study (% estimated), 800 mg/kg oral, M
kidney = details: cited from earlier work
[2] = human, cited from earlier work
[3] = cited from earlier work; for inter-strain variability of TCA levels in liver, GSD: Collaborative Cross mouse population
[4] = cited from earlier work
[5] = cited from earlier work; for carcinogenicity classification by IARC: ref Guha et al. 2012; for carcinogenicity classification by US EPA: ref U.S. EPA 2011a, b
[6] = at low doses; ref Chiu et al. 2009; cited from earlier work
[7] = 100 mg/kg oral, PBPK model estimate, ref Chiu et al 2011
[8] = 1 ppm inhalation, M, ref Chiu et al 2006
[9] = 10 ppm inhalation, PBPK model estimate, ref Chiu et al 2011
[10] = 100 mg/kg oral, mice, PBPK model estimate, ref Chiu et al 2011
[11] = 300 mg/kg oral, mice C57BL/6J, M, ref Cichocki et al 2017
[12] = 10 ppm inhalation, mice, PBPK model estimate, ref Chiu et al 2011
[13] = mean ± SD, average of all strains, single oral dose 6 mmole/kg
[14] = range over strains, model estimate
[15] = 100 mg/kg oral, rat, PBPK model estimate, ref Chiu et al 2011
[16] = 10 ppm inhalation, rat, PBPK model estimate, ref Chiu et al 2011
[17] = 1 ppm inhalation, M, PBPK model estimate, ref Chiu et al 2009
[18] = 70 ppm inhalation, M, ref Monster 1976
[19] = 70 ppm inhalation, M, ref Monster 1979
[20] = 200 mg/kg stomach tube, mice NMRI, F, ref Dekant et al. 1984
[21] = 500 mg/kg oral, mice B6C3F1/J, M, ref Green and Prout 1985
[22] = 600 mg/kg oral, mice B6C3F1/J, M, ref Larson and Bull 1992
[23] = 1000 mg/kg oral, mice, PBPK model estimate, ref Chiu et al 2009
[24] = 2100 mg/kg oral, mice B6C3F1/J, M, PBPK model estimate, ref Chiu et al 2014
[25] = model-derived AUCs across strains
[26] = 200 mg/kg stomach tube, rat Wistar, F, ref Dekant et al. 1984
[27] = 500 mg/kg oral, rat Osborne-Mendal, M, ref Green and Prout 1985
[28] = 600 mg/kg oral, rat Sprague-Dawley, M, ref Larson and Bull 1992
[29] = 100 ppm inhalation, rat, PBPK model estimate, ref Chiu et al 2009

## OCC(Cl)(Cl)Cl [TCOH, trichloroethanol]
[1]; TCE-treated mice, brain
  AUC0–36 of TCOH compared to that of TCA, brain: 22.7–53.1%
[1]; TCE-treated mice, kidney
  AUC0–36 of TCOH compared to that of TCA, kidney: 266–322%
[1]; TCE-treated mice, liver, kidney, brain, lung, serum examined
  tissue in which TCOH is most abundant: most abundant in kidney
[1]; TCE-treated mice, lung
  AUC0–36 of TCOH compared to that of TCA, lung: 49.8–68.7%
[1]; TCE-treated mice, serum
  AUC0–36 of TCOH compared to that of TCA, serum: 35.7–60%

## N[C@@H](CSC(Cl)=C(Cl)Cl)C(=O)O [TCVC, S-(1,2,2-trichlorovinyl)-L-cysteine]
kidney; directly administered cysteine conjugates, acute, sub-acute and sub-chronic exposure, ref Birner et al. 1997, Shirai et al. 2012, Vaidya et al. 2003
  doses at which most studies reported kidney effects: above 10 mg/kg
kidney; equimolar doses compared, ref Birner et al. 1997
  comparative nephrotoxicity of TCVC and DCVC: more nephrotoxic than DCVC

## ClC(Cl)=C(Cl)Cl [PCE, tetrachloroethylene]
[2]; [7]
  GSH conjugation (%): 18%
  Oxidation to GSH: 0.1
  TCA (%), percentage of administered dose excreted in urine: 1.8%
[2]; [8]
  TCA (%), percentage of administered dose excreted in urine: 0.2–0.8%
[2]; 10 ppm inhalation, M&F, ref Volkel et al 1998
  Oxidation to GSH: 107.7
[2]; [9]
  GSH conjugation (%): 9.4%
  Oxidation to GSH: 0.1
  TCA (%), percentage of administered dose excreted in urine: 0.98%
[2]; 20 ppm inhalation, M&F, ref Volkel et al 1998
  Oxidation to GSH: 89.1
[2]; 40 ppm inhalation, M&F, ref Volkel et al 1998
  Oxidation to GSH: 96.3
[2]; 72 ppm inhalation, M, ref Monster 1979
  TCA (%), percentage of administered dose excreted in urine: 2%
[3]; [10]
  GSH conjugation (%): 0.07%
  Oxidation to GSH: 500
  TCA (%), percentage of administered dose excreted in urine: 35%
[3]; [11]
  GSH conjugation (%): 0.79%
  Oxidation to GSH: 7.5
  TCA (%), percentage of administered dose excreted in urine: 5.9%
[3]; [12]
  GSH conjugation (%): 0.02%
  Oxidation to GSH: 600
  TCA (%), percentage of administered dose excreted in urine: 12%
[3]; single oral dose of PCE, ref Cichocki et al. 2017b
  inter-strain variability of TCA levels in liver, GSD: 1.64
[3]; mice orally dosed with 500 mg/kg 14C-labelled PCE, ref Schumann et al. 1980
  exhalation fraction of PCE: 82.6%
[1]
  flux through oxidation metabolism pathway over that through conjugation: 26–34 fold
  overall flux of glutathione conjugation expressed as dose: 2.9 to 4.5 mg/kg
  yield through glutathione conjugation pathway as % of that through oxidative pathway: 0.033%−3.3
[1]; [13]
  First order rate constant, Elimination T/PCE→: 0.17 ± 0.04 h⁻¹
  First order rate constant, GSH conjugation T/PCE→D/TCVG: (460±230)*10^−6 h^−1
  First order rate constant, Oxidation T/PCE→TCA: 0.014 ± 0.003 h⁻¹
[1]; range over strains
  portion of the parent compound that undergoes metabolism: 6.6%–9.7
  fraction of the total administered dose remaining unmetabolized until excretion: 90.3% to 93.5
[1]; [14]
  estimated fraction of the reactive species formation from cysteine conjugates: 46.7% to 52.6
[4]; [15]
  GSH conjugation (%): 0.6%
  Oxidation to GSH: 14.8
  TCA (%), percentage of administered dose excreted in urine: 8.9%
[4]; 10 ppm inhalation, rat Wistar, M&F, ref Volkel et al 1998
  Oxidation to GSH: 623.6
[4]; [16]
  GSH conjugation (%): 0.2%
  Oxidation to GSH: 19.5
  TCA (%), percentage of administered dose excreted in urine: 3.9%
[4]; 20 ppm inhalation, rat Wistar, M&F, ref Volkel et al 1998
  Oxidation to GSH: 540.6
[4]; 40 ppm inhalation, rat Wistar, M&F, ref Volkel et al 1998
  Oxidation to GSH: 316.4
[5]
  carcinogenicity classification by IARC: probably carcinogenic to humans
  carcinogenicity classification by US EPA: likely to be a human carcinogen

## N[C@@H](CSC(Cl)=CCl)C(=O)O [DCVC, S-(1,2-dichlorovinyl)-cysteine]
kidney; ref Shirai et al. 2012
  lowest dose with some adverse kidney effects observable: 1 mg/kg

## ClC=C(Cl)Cl [TCE, Trichloroethylene]
[2]; [17]
  GSH conjugation (%): 5%
  Oxidation to GSH: 7.6
  TCA(%) and TCOH (%), one cell spanning both columns: 38%
[2]; [8]
  TCA(%), percentage of administered TCE excreted in urine: 1–2%
  TCOH (%): 16–28%
[2]; [18]
  TCA(%), percentage of administered TCE excreted in urine: 18%
  TCOH (%): 39%
[2]; [19]
  TCA(%), percentage of administered TCE excreted in urine: 21%
  TCOH (%): 43%
[3]; [20]
  TCA(%), percentage of total urinary metabolite calculated based on radioactivity: 0.1 ^* %
  TCOH (%), percentage of total urinary metabolite calculated based on radioactivity: 94.3 ^* %
[3]; [21]
  TCA(%), percentage of total urinary metabolite calculated based on radioactivity: 7.2 ^* %
  TCOH (%), percentage of total urinary metabolite calculated based on radioactivity: 91.1 ^* %
[3]; [22]
  TCA(%), percentage of administered TCE excreted in urine: 3.9%
  TCOH (%): 31%
[3]; [23]
  GSH conjugation (%): 0.2%
  Oxidation to GSH: 450
  TCA(%) and TCOH (%), one cell spanning both columns: 90%
[3]; [24]
  GSH conjugation (%): 0.065%
  Oxidation to GSH: 290
  TCA(%), percentage of administered TCE excreted in urine: 4.4%
[3]; single oral dose of TCE, ref Venkatratnam et al. 2017
  inter-strain variability of TCA levels in liver, GSD: 2.24
[6]
  glutathione conjugation metabolites of TCE in rodents as % of that in humans: approximately 1%
[1]; B6C3F1/J mice, kidney
  AUC0–36 of TCE as compared to AUC0–36 of PCE, kidney: 2.0%
[1]; B6C3F1/J mice, liver
  AUC0–36 of TCE as compared to AUC0–36 of PCE, liver: 43.9%
[1]; B6C3F1/J mice, lung
  AUC0–36 of TCE as compared to AUC0–36 of PCE, lung: 36.2%
[1]; B6C3F1/J mice, serum
  AUC0–36 of TCE as compared to AUC0–36 of PCE, serum: 39.8%
[1]; mice B6C3F1/J
  TCA(%), percentage of administered TCE excreted in urine: 5.8%
  TCOH (%): 21%
[1]; mice C57BL/6J
  TCA(%), percentage of administered TCE excreted in urine: 3.5%
  TCOH (%): 12%
[1]; mice NZW/LacJ
  TCA(%), percentage of administered TCE excreted in urine: 7.1%
  TCOH (%): 31%
[1]
  flux through oxidation metabolism pathway over that through conjugation: 1,200–3,800 fold
  overall flux of glutathione conjugation expressed as dose: 0.13 to 0.17 mg/kg
  yield through glutathione conjugation pathway as % of that through oxidative pathway: 0.033%−3.3
[1]; higher
  elimination constant for n-acetylcysteine conjugates in TCE-treated as compared to PCE-treated mice: 1.5 fold
[1]; higher than PCE
  TCE elimination rate constant relative to that for PCE: 2.8 fold
[1]; higher than in PCE-treated mice
  formation rate constant of TCA (KTCA) in TCE-treated versus PCE-treated mice: 2.4 fold
[1]; [13]
  First order rate constant, Elimination NAcT/DCVC→: 23.8 ± 10.5 h⁻¹
  First order rate constant, Elimination T/PCE→: 0.49 ± 0.12 h⁻¹
  First order rate constant, Elimination TCA→: 0.05 ± 0.02 h⁻¹
  First order rate constant, Elimination TCOH→: 0.49 ± 0.13 h⁻¹
  First order rate constant, GSH conjugation D/TCVC→NAcD/TCVC: 73.4 ± 17.4 h⁻¹
  First order rate constant, GSH conjugation D/TCVC→Reactive species: 1.69 ± 0.45 h⁻¹
  First order rate constant, GSH conjugation D/TCVG→D/TCVC: 0.30 ± 0.07 h⁻¹
  First order rate constant, GSH conjugation T/PCE→D/TCVG: (3.5±1.1)*10^−6 h^−1
  First order rate constant, Oxidation T/PCE→TCA: 0.034 ± 0.010 h⁻¹
  First order rate constant, Oxidation T/PCE→TCOH: 0.13 ± 0.04 h⁻¹
[1]; [25]
  inter-strain variability of AUC of glutathione conjugation metabolites, GSD: 1.04−1.92
  inter-strain variability of AUC of oxidative metabolites (TCA and TCOH), GSD: 1.24−2.04
[1]; mouse, in vivo
  AUC0–36 of TCE as compared to AUC0–36 of PCE, brain: 29.0%
  elimination rate constant (Ke) of TCA in TCE-treated mice as % of that in PCE-treated mice: 62.5%
[1]; range over strains
  portion of the parent compound that undergoes metabolism: 15.7%−38.3
  fraction of the total administered dose remaining unmetabolized until excretion: 61.7% to 84.3
[1]; [14]
  Excreted TCA, % of the total dose: 3.5%−7.1
  TCOH, % of the total dose: 12.2−31.2%
  estimated fraction of the reactive species formation from cysteine conjugates: 2.1% to 2.4
[1]; serum, liver, brain, and lung, except for C57BL/6J mice, higher
  AUC0–36 of TCA in TCE-treated mice as compared to PCE-treated mice: 1.2–1.7 fold
[4]; [26]
  TCA(%), percentage of total urinary metabolite calculated based on radioactivity: 15.3 ^* %
  TCOH (%), percentage of total urinary metabolite calculated based on radioactivity: 73.6 ^* %
[4]; [27]
  TCA(%), percentage of total urinary metabolite calculated based on radioactivity: 6.3 ^* %
  TCOH (%), percentage of total urinary metabolite calculated based on radioactivity: 90.1 ^* %
[4]; [28]
  TCA(%), percentage of administered TCE excreted in urine: 4.1%
  TCOH (%): 23.2%
[4]; [29]
  GSH conjugation (%): 0.06%
  Oxidation to GSH: 666.7
  TCA(%) and TCOH (%), one cell spanning both columns: 40%
[4]; 505 ppm inhalation, rat F344, M, PBPK model estimate, ref Fisher et al. 1991
  TCA(%), percentage of administered TCE excreted in urine: 6%
[5]
  carcinogenicity classification by IARC: carcinogenic to humans
  carcinogenicity classification by US EPA: carcinogenic to humans
